Measured values reported in patent US20160375155A1, “Collagen Imaging Compositions” (Collagen Medical, LLC, priority 2015, published 2016).
Read-outs that look alike come from different tables or passages of the source.

Assays:
[1] = Relaxivity in PBS (Bruker mq60, 60 MHz); format: physicochemical; conditions: pH 7.4 PBS at 1.4 T, 37° C.
Procedure: The relaxivity of Compound ID Nos. 1, 2 and 4 were determined in PBS at 37° C. using a Bruker mq60 spectrometer operating at 60 MHz (1.4 tesla). Samples were equilibrated at concentrations ranging from 0-200 μM for at least 30 minutes at 37° C. T1 was measured using an inversion recovery sequence. Relaxivities were calculated by subtracting the relaxation rate of the buffer […] and then dividing the result by the concentration of Compound.

fibrotic liver tissue = assay: Uptake into fibrotic liver tissue, bile duct ligated (BDL) rats; format: in vivo, Sprague-Dawley rats; conditions: BDL rats vs sham, ~7.5 μmol/kg, 90 min
Procedure: Bile duct ligated (BDL) rats are selected to assess the uptake of the complexes in fibrotic liver tissue as compared to sham operated animals. In this model, the common bile duct is surgically tied off and the resultant cholestosis results in fibrosis around the bile ducts. Laparotomy is performed in Sprague-Dawley rats with double ligation of the common bile duct with a section between the two ligatures (2-3% isoflurane anesthesia). […] Fibrosis is evident 15 days after ligation and increases with time up to 30 days after ligation, providing defined endpoints for imaging of moderate and severe fibrosis. Studies are conducted by injecting Compound ID. No. 1 at a dose ˜7.5 μmol/kg. After 90 min, the animals are sacrificed and the 4 liver lobes and abdominal muscle are removed and the gadolinium concentration quantified by ICP-MS and collagen content quantified using hydroxyproline concentration.

myocardial collagen = conditions: rat MI model, healthy and infarcted heart
Procedure: Myocardial infarction was induced in Sprague Dawley rats by occlusion of the left anterior descending coronary artery followed by reperfusion. The rats were anesthetized with an intraperitoneal (i.p.) injection of 100 μg pentobarbital sodium per gram body weight and a thorocotamy was performed. The pericardium was removed and the left anterior artery was sutured with a 7.0 silk suture for 60 minutes after which reperfusion was established.
Animals were sacrificed at 60 minutes post-injection and the heart removed and sectioned for analysis.
The slope for this correlation is a measure of efficacy.

[2] = system: acute and chronic myocardial infarct (fibrosis); format: in vivo, canine; conditions: for CNR between infarct and blood: Compound ID No. 1 0.0075 mmol/kg, extracellular gadolinium 0.2 mmol/kg
Source text: An experimental protocol was developed to test the ability of Compound ID No. 1 to differentiate acute from chronic myocardial infarction in an in-vivo large animal (canine) model. In this model, early following acute myocardial infarction, pathologic fibrosis has not fully developed within the infarct zone (fibrosis-poor), whereas in chronic MI (˜8 weeks following MI), dense fibrosis fully replaced necrotic myocardium (fibrosis-rich).
In the myocardial fibrosis canine model, a vascular occluder was placed surgically around the left anterior descending coronary artery (LAD) to allow occlusion and reperfusion. Two animals were studied following acute MI and two additional animals were studied both following acute MI, and chronically at 8 weeks. The LAD vessel was completely occluded for 70-90 minutes and then released to allow reperfusion. The chest was sutured closed, and the animal was allowed to recover. Imaging was performed on a 3 T clinical scanner in an acute (<1 week, minimal fibrosis expected in acute necrosis) and chronic (8 weeks, healing complete, necrotic myocardium replaced by dense collagenous scar) time point after infarction. For each time point, the animals undergo 2 scans separated by 48 hours with conventional gadolinium contrast (0.2 mmol/kg GdDTPA) and Compound ID No. 1 (0.0075 mmol/kg).
Imaging was performed on a 3 T clinical scanner (Siemens Verio). Breath holding was achieved by temporarily turning off the animal ventilator, and all images were ECG gated. Standard short and long axis cine imaging was performed throughout the left ventricle to identify left ventricular function and regional wall motion abnormalities. Delayed enhancement imaging (segmented 2D inversion recovery gradient echo) was performed prior to and serially following Compound ID No. 1 administration. Two strategies were employed: (1) a fixed inversion time was chosen to null pre-contrast myocardium (TI˜650 ms), and (2) a variable inversion time set to null post-contrast myocardium as is performed in traditional delayed enhancement imaging.
After imaging, animals were euthanized and post mortem analysis of myocardium was performed. Tissue was assessed grossly by histopathologic staining with triphenyltetrazolium chloride for myocardial infarction, and microscopically with Masson's trichrome staining for fibrosis. Additionally quantitative tissue analysis for hydroxyproline was used to measure total collagen content in tissue and compared to tissue gadolinium concentration by inductively coupled plasma-mass spectrometry. MR data was analyzed quantitatively for conspicuity of infarction and image quality as well as contrast to noise ratio (CNR) for infarct-normal myocardium and infarct-blood.

CC(C)C[C@H](NC(=O)[C@@H]1CSSC[C@H](NC(=O)[C@H](Cc2c[nH]cn2)NC(=O)[C@H](Cc2c[nH]c3ccccc23)NC(=O)[C@H](CCCCNC(=O)CC[C@H](C(=O)O)N2CCN(CC(=O)O)CCN(CC(=O)O)CCN(CC(=O)O)CC2)NC(=O)CNC(=O)CC[C@H](C(=O)O)N2CCN(CC(=O)O)CCN(CC(=O)O)CCN(CC(=O)O)CC2)C(=O)N[C@@H]([C@@H](C)O)C(=O)N[C@@H]([C@@H](C)O)C(=O)N[C@@H](CCCCNC(=O)CC[C@H](C(=O)O)N2CCN(CC(=O)O)CCN(CC(=O)O)CCN(CC(=O)O)CC2)C(=O)N[C@@H](Cc2ccccc2)C(=O)N2CCC[C@H]2C(=O)N[C@@H](Cc2c[nH]cn2)C(=O)N[C@@H](Cc2c[nH]cn2)C(=O)N[C@@H](Cc2ccc(O)cc2)C(=O)N1)C(=O)N[C@@H](Cc1ccc(O)cc1)C(=O)N[C@@H](Cc1ccc(-c2ccccc2)cc1)C(N)=O [Compound ID No. 1]
R1 (relaxivity) [1]: 43.4 mM⁻¹ s⁻¹ | uptake into fibrotic liver tissue (fibrotic liver tissue): consistent with uptake of Compound ID No. 1 into fibrotic-rich liver tissue | calculated slope, hydroxyproline vs. gadolinium concentration (myocardial collagen): 8498 | CNR between infarct and blood ([2]; acute MI): 19±7.4 | T1 of infarct vs normal myocardium ([2]; acute myocardial infarction, FIG. 24a): longer than normal (N1) myocardium | MR image enhancement of infarct over time ([2]; acute myocardial infarction, FIG. 25a): lack of contrast early, equilibration with normal myocardium at 30 minutes, and enhancement >1 hr | relationship of compound concentration (gadolinium) vs. collagen concentration (hydroxyproline) ([2]; canine heart tissue, FIG. 26): linear relationship | CNR between infarct and blood ([2]; chronic MI (8 weeks)): 11±2 | extent of the enhanced area ([2]; chronic infarct, compared with Gd delayed enhancement): matched that of Gd delayed enhancement | T1 of infarct vs normal myocardium ([2]; chronic myocardial infarction, FIG. 24b): lower T1 than normal myocardium throughout the entire experiment | T1 of infarct vs normal myocardium ([2]; chronic myocardial infarction, FIG. 24b, listed as Compound ID. No. 1): early and persistent lowering of T1 values
